Tests used:
Format in all cases: cell-based, human
sPLA2-IIA gene promoter = assay: sPLA2-IIA(-800)-Luc reporter (luciferase) assay in LNCaP-AI cells; details: about 24 hours, FIG. 1; for effect on EGF-stimulated promoter activity of sPLA2-IIA gene: EGF ~100 ng/mL with inhibitor ~20 μM (CI-1033 ~8 μM)
Protocol: (§1) The role of sPLA2-IIA gene regulation in prostate cancer cells via the HER/HER2-PI3K-Akt-NF-κB pathway was investigated. A reporter assay was performed by transiently transfecting sPLA2-IIA(-800)-Luc (˜0.25 μg/well) reporter in LNCaP-AI cells (˜10^5 cells/well in 12-well plate). The cells were then treated with epidermal growth factor (hereinafter “EGF”) (˜100 ng/mL) without or with EGFR inhibitors Erlotinib (˜20 μM) and Gefitinib (˜20 μM), EGFR/HER2 dual inhibitors Lapatinib (˜20 μM) and CI-1033 (˜8 μM), phosphoinositide 3-kinase (hereinafter “PI3K”) inhibitor LY294002 (˜20 μM), and NF-κB inhibitor Bortezomib (˜20 μM) for about 24 hours. A luciferase assay was performed according to a standard protocol with Renilla luciferase as an internal control. Another reporter assay was performed wherein LNCaP-AI cells were starved in 1% stripped medium for about 24 hours. The cells were the treated with Erlotinib (˜20 μM), Gefitinib (˜20 μM), Lapatinib (˜20 μM), CI-1033 (˜8 μM), LY294002 (˜20 μM), Bortezomib (˜20 μM), and/or Heregulin-α (˜50 ng/mL) without or with EGF (˜100 ng/mL) for about 24 hours.

[1] = tested on: sPLA2-IIA protein expression in LNCaP-AI cells; assay: Western blot of sPLA2-IIA protein expression in LNCaP-AI cells; details: about 24 hours; for effect on sPLA2-IIA protein expression: basal states and EGF-induced expression, inhibitor ~20 μM (CI-1033 ~8 μM), FIGS. 2-4
Protocol: as §1
Cell extracts were then prepared and subjected to western blot analysis for sPLA2-IIA, P-Akt, Akt, and β-actin. Briefly, aliquots of samples with the same amount of protein, determined using the Bradford assay (BioRad, Hercules, Calif.), were mixed with loading buffer (final concentrations of 62.5 mM Tris-HCl, pH 6.8, 2.3% sodium dodecyl sulfate, 100 mM dithiothreitol, and 0.005% bromophenol blue), boiled, fractionated in a sodium dodecyl sulfate-polyacrylamide gel electrophoresis, and transferred onto a 0.45-μm nitrocellulose membrane (BioRad). The filters were blocked with 2% fat-free milk in PBS, and probed with primary antibody in phosphate buffered saline containing 0.1% Tween 20 (i.e., PBST) and 1% fat-free milk. The membranes were then washed four times in PBST and incubated with horseradish peroxidase-conjugated secondary antibody (BioRad) in PBST containing 1% fat-free milk. After washing four times in PBST, the membranes were visualized using the ECL Western Blotting Detection System (Amersham Co, Arlington Height, Ill.).

[2] = tested on: sPLA2-IIA secretion by LNCaP-AI cells; assay: ELISA of sPLA2-IIA secreted into culture medium of LNCaP-AI cells; details: inhibitor ~20 μM (CI-1033 ~8 μM), about 24 hours, FIG. 7
Protocol: Finally, LNCaP-AI cells were starved in 1% stripped medium for about 24 hours. The cells were then treated with Erlotinib (˜20 μM), Gefitinib (˜20 μM), Lapatinib (˜20 μM), CI-1033 (˜8 μM), LY294002 (˜20 μM), and Bortezomib (˜20 μM) for about 24 hours. Cell culture medium was collected from each sample and subjected to ELISA for sPLA2-IIA. The condition medium samples were diluted 10 times for ELISA. The average of duplicate samples was converted to nanogram per milliliter against standard curve. The data represent one of five repeated experiments.

[3] = tested on: sPLA2-IIA expression in LAPC-4 and DU145 cells; assay: Western blot of sPLA2-IIA expression in LAPC-4 and DU145 cells; details: Lapatinib ~20 μM, via blocking PI3K-Akt signaling, FIG. 5
Protocol: A reporter assay was performed by transiently transfecting sPLA2-IIA(-800)-Luc (˜0.25 μg/well) reporter in LNCaP-AI cells (˜10^5 cells/well in 12-well plate). The cells were then treated with epidermal growth factor (hereinafter “EGF”) (˜100 ng/mL) without or with EGFR inhibitors Erlotinib (˜20 μM) and Gefitinib (˜20 μM), EGFR/HER2 dual inhibitors Lapatinib (˜20 μM) and CI-1033 (˜8 μM), phosphoinositide 3-kinase (hereinafter “PI3K”) inhibitor LY294002 (˜20 μM), and NF-κB inhibitor Bortezomib (˜20 μM) for about 24 hours. A luciferase assay was performed according to a standard protocol with Renilla luciferase as an internal control. Another reporter assay was performed wherein LNCaP-AI cells were starved in 1% stripped medium for about 24 hours. […] Briefly, aliquots of samples with the same amount of protein, determined using the Bradford assay (BioRad, Hercules, Calif.), were mixed with loading buffer (final concentrations of 62.5 mM Tris-HCl, pH 6.8, 2.3% sodium dodecyl sulfate, 100 mM dithiothreitol, and 0.005% bromophenol blue), boiled, fractionated in a sodium dodecyl sulfate-polyacrylamide gel electrophoresis, and transferred onto a 0.45-μm nitrocellulose membrane (BioRad). […]

Molecule	effect on EGF-stimulated promoter activity of sPLA2-IIA gene (sPLA2-IIA gene promoter)	effect on sPLA2-IIA protein expression [1]	effect on sPLA2-IIA secretion (ELISA of culture medium) [2]	effect on sPLA2-IIA expression in LAPC-4 and DU145 cells [3]	promoter activity of sPLA2-IIA gene (sPLA2-IIA gene promoter; EGF ~100 ng/mL)	sPLA2-IIA expression (western blot), stimulation by EGF ([1]; EGF ~100 ng/mL, FIGS. 2 and 3)
CC(C)C[C@H](NC(=O)[C@H](Cc1ccccc1)NC(=O)c1cnccn1)B(O)O [Bortezomib]	blocked	dramatically downregulated	significantly inhibited	–	–	–
C=CC(=O)Nc1cc2c(Nc3ccc(F)c(Cl)c3)ncnc2cc1OCCCN1CCOCC1 [CI-1033]	blocked	moderate impact	moderate effect	–	–	–
C#Cc1cccc(Nc2ncnc3cc(OCCOC)c(OCCOC)cc23)c1 [Erlotinib]	blocked	moderate impact	moderate effect	–	–	–
COc1cc2ncnc(Nc3ccc(F)c(Cl)c3)c2cc1OCCCN1CCOCC1 [Gefitinib]	blocked	moderate impact	moderate effect	–	–	–
CS(=O)(=O)CCNCc1ccc(-c2ccc3ncnc(Nc4ccc(OCc5cccc(F)c5)c(Cl)c4)c3c2)o1 [Lapatinib]	blocked	dramatically downregulated	significantly inhibited	inhibited	–	–
EGF: epidermal growth factor	–	–	–	–	significantly stimulated	stimulated sPLA2-IIA expression
